The source of these data is patent publication US20070207123A1, “Amelioration of effects of cigarette smoke” (priority 2002, published 2007).

Marks after values point to notes of the source that are not given here.

For experiment [1], the system named is mice exposed to side-stream cigarette smoke (SSCS). Kind of experiment: Dynamic lung compliance after side-stream cigarette smoke (SSCS) exposure. The class given is in vivo, mouse (C57B1/6). The protocol:
C57B1/6 (B6, Jackson Labs) mice were utilized. Mice were used at an age of 8-12 weeks, 25-35 grams in weight. Female animals only were utilized. All animals were housed in the animal facility of the Dept. of Animal Resources at The University of Arizona Health Sciences Center. Animals were used in AAALAC-approved protocols.
Aerosolized exposures were performed using a DeVilbiss Ultra-Neb nebulizer (Model 099HD, Somerset, Pa.). Animals were exposed in a nose-only presentation while held in individual subject loading tubes similarly to that previously described (12). The tubes were nose cone-fitted to receiving adapters that originated from the common exposure chamber (volume 0.0027 m3, IN-TOX, Albuquerque, N. Mex.). […] Exposure concentration was determined by a seven-stage cascade impactor (IN-TOX) from changes in plate weights and measured immediately after each exposure. […]
Mice were anesthetized with ketamine hydrochloride (80 mg/kg), xylazine (10 mg/kg) and acepromazine maleate (3 mg/kg). […] Airflow was measured with a pneumotachograph (Fleisch #0000, Instrumentation Associates, New York, N.Y.) that was coupled to a differential pressure transducer (Validyne, Northridge, Calif.). […] These lung function parameters were measured with a modified PEDS-LAB (Medical Associated Services, Hatfield, Pa.) pulmonary function system. […]

Experiment [2] concerns airway epithelium and basement membranes of SSCS-exposed mice. Nature of the experiment: Electron microscopy of lung airway after SSCS exposure. The class given is in vivo, mouse (C57B1/6). The protocol: Mice were exposed to side-stream cigarette smoke as previously described (23). […] The cigarette was lit, placed upright in a ring clamp and the smoke was directed into a funnel for distribution through the chamber (at a concentration designed to simulate human exposure in a smokey bar).
The Substance P (SP) agonist, [Sar^9, Met (O2)^11-substance P] was obtained from Sigma Chemicals (St. Louis, Mo.) and used after reconstitution in sterile saline.
(§1) Mice were treated with the SP analog [Sar^9, Met (O2)^11-substance P] for 15 minutes at the indicated doses following the cigarette smoke exposures as previously described (7, 10). Other than the genetically engineered SP experiments, all SP treatments were by the aerosol route using the previously described exposure chambers.
The lungs were prepared for morphometric study by injection of half-strength Kamovsky's Fluid into a major artery at a constant pressure of 20 cm H2O for 1 h at room temperature. The fixed tissue was then tied off at the artery with #4 suture. The Pathology Core Laboratories of the Southwestern Environmental Health Science Center evaluated the fixed tissue for pathological changes. The fixed tissues were sliced, dehydrated and post-fixed in osmium tetroxide, dehydrated and embedded in Epon-Araldite for high-resolution electron microscopy. Thin sections were cut from the embedded tissue with a diamond knife, mounted on 200 um copper mesh grids, and doubly stained with lead citrate and uranyl acetate. The tissue was viewed and photographed using a Phillips CM12 electron microscope (maximum magnification of 19,000×) (21).
Animals were exposed to SSCS for 45 min/day for 7 days from 1R4 standard research cigarettes (cigarette is lit and then placed upright in a ring clamp and the smoke is directed into a funnel for distribution through our exposure chamber) at a concentration designed to simulate a “smokey bar” scenario for human exposure to sidestream cigarette smoke. The sidestream cigarette smoke is considered highly toxic, even compared to the mainstream cigarette smoke that a human smoker inhales, due to the low combustion temperature of the smoldering cigarette. Subsequent to the exposures, some mice were treated with 1 uM-aerosolized SP for 15 minutes. At the end of one week the animals were sacrificed and lungs removed for electron microscopic analysis. […] The structure of the airway is characterized by airway epithelial cells anchored to a basement membrane. Another basement membrane serves as the anchor for the airway endothelial cells. The SSCS electron micrograph is characterized by swelling in both basement membrane areas of the airway structure and loss of cilia on the surface of the airway epithelium. […]

Experiment [3] concerns mononuclear cells of SSCS-exposed mice. Nature of the experiment: Micronuclei formation in bone marrow and peripheral blood cells after SSCS exposure. The class given is in vivo, mouse (C57B1/6). The protocol:
Determination of micronuclei formation was made as described by Fenech (3). Briefly, animals were exposed to cigarette smoke ±SP treatment. Viable mononuclear cells were isolated from peripheral blood and bone marrow, stimulated with the mitogen PHA for 44 h, and treated with cytochalasin B for 28 h. Cytocentrifuge preparations were made, cells fixed and then analyzed at 1000× for micronuclei formation. At least 1000 cells were analyzed for each preparation.
Exposure to cigarette smoke results in genetic changes that can cause malignant cellular transformation (21, 22). Animals were exposed to SSCS as described above and sacrificed after 7 days. Viable mononuclear cells were isolated from peripheral blood and bone marrow, stimulated with the mitogen PHA for 44 h, and treated with cytochalasin B for 28 h. Cytocentrifuge preparations were made, cells fixed and then analyzed at 1000× for micronuclei formation. At least 1000 cells were analyzed from each preparation. […] Micronuclei formation in combination with damage of lung epithelia can result on pathological conditions such as emphysema and cancer (21).

For the next experiment, the system named is B16 tumor cells. Nature of the experiment: Experimental lung metastasis model, aerosolized SP. The class given is in vivo, mouse (B6). Conditions: for #Tumors/2 Lungs: mean +/− SD; for % Change in #Tumors/2 Lungs: vs B16 alone. The protocol:
as §1
B16 tumor cells (H-2^b) were obtained from the American Type Cell Collection (ATCC) and grown in DMEM media (Sigma, St. Louis, Mo.) supplemented with 10% fetal bovine serum (Hyclone, Colo.), antibiotics, nonessential amino acids and glutamine as. Cells in log growth were used for all experiments. An experimental lung metastasis model was utilized in which B16 tumor cells (0.5×10^6 cells in 100 ul saline) were injected intravenously into syngeneic B6 mice. At 7-10 days post-injection the animals were sacrificed and the visually prominent (black) tumors on the surface of both lungs were enumerated.
The Student's t-test was utilized to analyze the data presented. A p value of 0.05 (or lower) was used as a minimally significant difference.

The subject of experiment [4] is pulmonary alveolar macrophages (PAM). Nature of the experiment: TNF-alpha secretion by pulmonary alveolar macrophages (ELISA). The class given is cell-based, rat (Fischer 344). Conditions: overnight incubation, baseline 8.3 pg/ml per 1 × 10^6 cells, N 5. On the procedure:
Rat pulmonary alveolar macrophages (PAM) were isolated from pathogen-free male Fischer 344 rats (Harlan, Indianapolis, Ind.). The rats were anesthetized intramuscularly with ketamine HCL (80 mg/kg; Parke-Davis, Morris Plains, N.J.), xylazine (10 mg/kg; Mobay Corp., Shawnee, Kans.) and acepromazine maleate (3 mg/kg; Fermenta Animal Health Co., Kansas City, Mo.). A tracheostomy was performed, with the insertion of a Teflon #18 gauge catheter (Critikon, Tampa Bay, Fla.) as an endotracheal tube. The rats were killed by exsanguination of the abdominal aorta. The lungs were removed and lavaged with 3 ml aliquots of normal sterile saline warmed to 37 C for a total of 6 washes. The lavaged total cell numbers and PAM differentials were determined from a 0.2 ml sample by hemocytometer counting and cytocentrifuge preparation stained with Diff-Quik (Dade Diagnostics, Aguada, Puerto Rico), respectively. The remaining lavaged fluid was pooled and centrifuged at 400×g for 10 minutes to obtain a cell pellet. […] Cells were then counted using a standard hemocytometer and placed in 12 well plates at a density of 10^4 cells/ml. […]
TNF-alpha secretion by pulmonary alveolar macrophages (PAM) was measured by ELISA (R&D Systems, Minneapolis, Minn.) according to the manufacturer's instructions (25).
(In an ELISA, binding on a coated surface is turned into a signal by an enzyme label.)

The mark [5] stands for this setting: SSCS 45 min/day then 15 min aerosol dose, FIG. 2.
Setting [6] is: SSCS + SP, 7 days, mean +/− SD, N 6.

Turning to [Sar^9, Met (O2)^11-substance P] [SP], the “alterations in lung compliance due to SSCS” value in experiment [1] (SP immediately after the smoke exposures) is on record as “prevented/reversed”. In addition, the “Dynamic Lung Compliance” value in experiment [1] (SSCS 45 min/day for 1 week, then 1 uM aerosolized SP for 15 min, mean +/− SEM, N 15) is 2.2 (0.02) ml · cm H2O^−1 · Kg^−1. In addition, the “deterioration of the lung epithelium / basement membrane (electron microscopy)” value in experiment [2] (SSCS 45 min/day 7 days, 1 uM aerosolized SP 15 min) is “attenuated such deterioration of the lung epithelium”. Moreover, the “airway basement membranes (electron micrograph)” value in experiment [2] (setting [5]) is listed as “normal appearance of airway basement membranes”. Besides, in experiment [2] (setting [5]), the “airway cilia (electron micrograph)” value is listed as “normal cilia”. Besides, the “cell membrane between airway cells (electron micrograph)” value in experiment [2] (SSCS 45 min/day then 15 min aerosol dose, FIG. 3) was “identifiable cell membrane between airway cells”. For the same substance, the “levels of micronuclei formation versus control animals” value in experiment [3] (SP immediately after SSCS exposure, blood and bone marrow cells) is given as “comparable to control animals”. The “Percent Micronuclei, Blood” value in experiment [3] (setting [6]) was 0.01 +/− 0.01* Percent. In addition, the “Percent Micronuclei, Bone Marrow” value in experiment [3] (setting [6]) is given as 0 +/− 0* Percent. Also, the “inhibition of lung tumor formation” value in the experiment with B16 tumor cells (Experiments 1 to 3, aerosolized SP at the time of or after tumor induction) is on record as 58-97%. In addition, the “#Tumors/2 Lungs” value with B16 tumor cells (Expt. 1: aerosolized SP at the time of tumor induction, N 4) is on record as 39 +/− 4*; in the experiment with B16 tumor cells (Expt. 2: aerosolized SP at day 7 following tumor induction, N 4) it was 1 +/− 0.3*; with B16 tumor cells (Expt. 3: aerosolized SP at day 7 following tumor induction, N 8), 102 +/− 32*. The entries for the “% Change in #Tumors/2 Lungs” value in the experiment on B16 tumor cells (Expt. 1: aerosolized SP at the time of tumor induction), in the experiment on B16 tumor cells (Expt. 2: aerosolized SP at day 7 following tumor induction) and in the experiment on B16 tumor cells (Expt. 3: aerosolized SP at day 7 following tumor induction) were −63%, −97% and −58%, respectively. In addition, the entries for the “Fold-Increase TNFa” value in experiment [4] (8 nM SP) and in experiment [4] (1 uM SP) were 3.2X and 5.4X, respectively.
